Reference: patent publication EP2649989B1, “Method for preparing a solid dispersion, solid dispersion obtained thereby and use thereof” (King Saud University, priority 2012, dated 2013)
Converted amounts (≈) assume the structure as drawn.

Assay: Solubility in water according to the Higuchi-Connor method
Assay type: physicochemical
Conditions: thermodynamic from solid; excess amount added to 10 ml of water, shaken on mechanical shaker for 48 hours, filtered, dissolved drug content; read-out: Indomethacin Solubility in water
Experimental: The solubility of the drug (indomethacin) and solid dispersions of the drug according to the invention was examined in water according to the Higuchi-Connor method, see "Advances in Analytical Chemical Chemistry and Instrumentation" Vol. 4, New York, Wiley-Interscience 1965, page 117-212. An excess amount of drug, comparative solid dispersions and inventive solid dispersions was added to 10 ml of water, separately. The dispersions were shaken on mechanical shaker for 48 hours. Afterwards, the samples were withdrawn, filtered, diluted and analyzed to calculate the dissolved drug content.

- solubility at 48 h: 152 µg/mL (≈ 425 µM)
Compound: COc1ccc2c(c1)c(CC(=O)O)c(C)n2C(=O)c1ccc(Cl)cc1 [Indomethacin]
